Source: US9040717B2, “Pyrazole-amide compounds and pharmaceutical use thereof” (JAPAN TOBACCO INC., priority 2013, dated 2015)

Columns and labels:
[1] = Metabolic stability test in human liver microsome; format: in vitro ADME; details: 5 μM, 37° C.
Description: Human liver microsome (manufactured by Xenotech, H0620, final concentration (after dilution), 0.2 mg protein/mL) was suspended in 100 mM potassium phosphate buffer (pH 7.4, containing β-nicotinamide adenine dinucleotide phosphate: 1.3 mM, D-glucose-6-phosphate: 3.3 mM, magnesium chloride: 3.3 mM, glucose-6-phosphate dehydrogenase: 0.45 U/mL), and further mixed with a test compound dissolved in MeCN/DMSO (95/5) (final concentration 5 μM). The mixture was incubated at 37° C. for 10 min and 60 min, acetonitrile containing formic acid (final concentration 0.1%) was added, and the mixture was centrifuged. The test compound (unmodified) in the supernatant was measured by high performance liquid chromatography/mass spectrometry (LC/MS) (manufactured by Waters, LC: Acquity UPLC, MS:SQ Detector or TQ Detector). The residual ratio (%) was calculated from the obtained measurement value.

[2] = test system: adipose tissue PDH activity; assay: Ex vivo PDH activation assay, adipose tissue; format: in vivo, Sprague-Dawley rats
Description: (§1) The action of test compound on tissue PDH activity was evaluated. NADH production was detected via p-iodonitrotetrazolium violet (INT)-coupled system to measure PDH activity.
(§2) Normal male Sprague-Dawley rats were randomly allocated to the vehicle group and the test compound groups. The vehicle (0.5% aqueous methylcellulose solution, 5 mL/kg) or the test compound was orally administered to the rats. At 5 or 20 hr after administration, the rats were anesthetized with an intraperitoneal injection of sodium pentobarbital (60 mg/kg), and liver slices and epididymal adipose tissues were collected.
(§3) To the adipose tissues were rapidly added 3 volumes of an ice-cold homogenization buffer, and the mixtures were homogenized using a Polytron homogenizer. The homogenates were centrifuged at 600×g, 4° C. for 10 min to obtain the supernatant. The supernatants were centrifuged at 16,000×g, 4° C. for 10 min to collect the precipitates. The precipitates were washed by resuspension in the homogenization buffer (1 mL) and centrifuged in the same manner. The precipitates were frozen with liquid nitrogen and stored at −80° C. as the adipose tissue mitochondrial fraction.
(§4) The mitochondrial fractions were thawed and suspended with the sample buffer (0.25 mol/L sucrose, 20 mmol/L tris(hydroxymethyl)aminomethane hydrochloride (pH 7.5), 50 mmol/L potassium chloride, and 1 mL/L 4-(1,1,3,3-tetramethylbutyl)phenyl-polyethylene glycol (Triton X-100)). Active PDH activity (PDHa activity) and total PDH activity (PDHt activity) were measured to evaluate the PDH activity. For the measurement of the PDHt activity, equal amounts of the mitochondrial suspension and the activation buffer (0.25 mol/L sucrose, 20 mmol/L tris(hydroxymethyl)aminomethane hydrochloride (pH 7.5), 50 mmol/L potassium chloride, 1 mL/L Triton X-100, 4 mmol/L calcium chloride, 40 mmol/L magnesium chloride, 10 mmol/L sodium dichloroacetate) were mixed, and the mixtures were incubated at 37° C. for 10 min. Forty microliters of the mitochondrial suspensions diluted with a sample buffer were added to a 96-well microplate for activity measurement and blank measurement. Then 180 μL of the reaction mixture (0.056 mmol/L potassium phosphate buffer (pH 7.5), 5.6 mmol/L DL-carnitine, 2.8 mmol/L NAD, 0.22 mmol/L thiamin pyrophosphate, 0.11 mmol/L Coenzyme A, 1.1 mL/L Triton X-100, 1.1 mmol/L magnesium chloride, 1.1 g/L bovine serum albumin, 0.67 mmol/L INT, 7.2 μmol/L phenazine methosulfate, 28 mmol/L sodium oxamate) was added to each well, and then 20 μL of 50 mmol/L sodium pyruvate for activity measurement or water for blank measurement were added. The mixtures were incubated at room temperature under shading. The absorbances at 500-750 nm, which were attributable to reduction of INT, the final electron acceptor, were measured using a microplate reader over time and the changes in the absorbance were calculated. The PDH activity was calculated by subtraction of the change in absorbance of the blank well from that of the activity measurement well. The percentage of the PDHa activity to the PDHt activity was calculated and taken as an index of the PDH activation.

[3] = Metabolic stability test in rat liver microsome; format: in vitro ADME
liver PDH activity = assay: Ex vivo PDH activation assay, liver; format: in vivo, Sprague-Dawley rats
Description: as §1, §2
as §3, with “liver slices” for “adipose tissues”, “9” for “3”, “of” for “of an”, “buffer (0.25 mol/L sucrose, 5 mmol/L tris(hydroxymethyl)aminomethane hydrochloride (pH 7.5), 2 mmol/L EDTA),” for “buffer,”, “supernatants (1 mL)” for “supernatants”, “liver” for “adipose tissue”
as §4

[4] = Table 2, 5 hr after oral 3 mg/kg, non-fasting SD rats, vehicle 31 ± 10, mean ± S.D. (n = 3)
[5] = Table 2, 20 hr after oral 3 mg/kg, non-fasting SD rats, vehicle 31 ± 10, mean ± S.D. (n = 3)
[6] = Table 2, 5 hr after oral 3 mg/kg, non-fasting SD rats, vehicle 13 ± 3, mean ± S.D. (n = 3)
[7] = Table 2, 20 hr after oral 3 mg/kg, non-fasting SD rats, vehicle 13 ± 3, mean ± S.D. (n = 3)

Structure (SMILES) | Stability in liver microsome (residual ratio %) ([1]; 10 min) [%] | Stability in liver microsome (residual ratio %) ([1]; 60 min) [%] | PDHa activity (% of PDHt activity) [2, 4] | PDHa activity (% of PDHt activity) [2, 5] | Stability in liver microsome (residual ratio %) ([3]; 10 min) [%] | Stability in liver microsome (residual ratio %) ([3]; 60 min) [%] | PDHa activity (% of PDHt activity) (liver PDH activity; [6]) | PDHa activity (% of PDHt activity) (liver PDH activity; [7]) | PDHa activity (% of PDHt activity) ([2]; Table 3, 5 hr after oral 3 mg/kg, SD rats, vehicle 42 ± 4, mean ± S.D. (n = 3)) | PDHa activity (% of PDHt activity) ([2]; Table 3, 20 hr after oral 3 mg/kg, SD rats, vehicle 42 ± 4, mean ± S.D. (n = 3)) | PDHa activity (% of PDHt activity) (liver PDH activity; Table 3, 5 hr after oral 3 mg/kg, SD rats, vehicle 28 ± 6, mean ± S.D. (n = 3)) | PDHa activity (% of PDHt activity) (liver PDH activity; Table 3, 20 hr after oral 3 mg/kg, SD rats, vehicle 28 ± 6, mean ± S.D. (n = 3))
CC(C)(O)CCCOc1cc(-c2cnn(C(C)(C)C(N)=O)c2)c2c(c1)[C@@](O)(C(F)(F)F)c1ccccc1-2 [Compound (3), 2-{4-[(9R)-9-hydroxy-2-(4-hydroxy-4-methylpentyloxy)-9-(trifluoromethyl)-9H-fluoren-4-yl]-1H-pyrazol-1-yl}-2-methylpropanamide] | 98.4 | 85.9 | 70 ± 9 % of PDHt activity | 42 ± 3 % of PDHt activity | 102.7 | 95.8 | 56 ± 8 % of PDHt activity | 32 ± 9 % of PDHt activity | – | – | – | –
CC(C)(O)CCOc1cc(-c2cnn(C(C)(C)C(N)=O)c2)c2c(c1)[C@@](O)(C(F)(F)F)c1ccccc1-2 [Compound (2), 2-{4-[(9R)-9-hydroxy-2-(3-hydroxy-3-methylbutyloxy)-9-(trifluoromethyl)-9H-fluoren-4-yl]-1H-pyrazol-1-yl}-2-methylpropanamide] | 98.8 | 96.5 | – | – | 98.8 | 100.0 | – | – | 88 ± 11 % of PDHt activity | 61 ± 15 % of PDHt activity | 74 ± 12 % of PDHt activity | 50 ± 16 % of PDHt activity
NC(=O)Cn1cc(-c2cc(OCCC34CC5CC(CC(O)(C5)C3)C4)cc3c2-c2ccccc2[C@]3(O)C(F)(F)F)cn1 [Compound (A), 2-(4-{(9R)-9-Hydroxy-2-[2-(3-hydroxyadamantan-1-yl)ethoxy]-9-(trifluoromethyl)-9H-fluoren-4-yl}-1H-pyrazol-1-yl)acetamide] | 34.8 | 0.0 | 32 ± 14 % of PDHt activity | 24 ± 7 % of PDHt activity | 24.8 | 0.0 | 35 ± 6 % of PDHt activity | 16 ± 10 % of PDHt activity | – | – | – | –
Cn1cc(-c2cc(OCC(C)(C)O)cc3c2-c2ccccc2[C@]3(O)C(F)(F)F)cn1 [Compound (B), (9R)-2-(2-Hydroxy-2-methylpropoxy)-4-(1-methyl-1H-pyrazol-4-yl)-9-(trifluoromethyl)-9H-fluoren-9-ol] | 98.0 | 88.2 | 59 ± 5 % of PDHt activity | 30 ± 4 % of PDHt activity | 101.1 | 92.1 | 43 ± 7 % of PDHt activity | 10 ± 3 % of PDHt activity | – | – | – | –
